Experimental data from publication PMC10560236, “A protein kinase C α and β inhibitor blunts hyperphagia to halt renal function decline and reduces adiposity in a rat model of obesity-driven type 2 diabetes” (Scientific Reports, 2023).

How the values were obtained:
[1] = tested on: HEK293 cells overexpressing PKCβ2; assay: PMA-induced IL-8 production in HEK293 cells over-expressing PKCβ2; type: cell-based; conditions: HEK293 over-expressing PKCβ2, 3 nM PMA, 4-h supernatants; read-out: IC50, inhibition of IL-8 production in response to PMA
Description: For the HEK293 cell-based assay, HEK293 cells engineered to over-express full-length PKCβ2 were stimulated with 3 nM PMA in DMEM media supplemented with 0.5% FBS. 4-h cell culture supernatants were analyzed for IL-8 by MSD (Rockville, MD).

[2] = tested on: intact glomeruli isolated from SD rats; assay: PMA-luminol ROS assay in intact glomeruli; type: cell-based; conditions: intact SD rat glomeruli, 16 μM PMA, luminol luminescence; read-out: IC50, PMA-induced ROS production (change in velocity)
Description: For the phorbol 12-myristate 13-acetate (PMA)-luminol assay, glomeruli isolated from PBS-perfused kidneys were diluted in an HBSS solution containing 1 mM luminol, 0.1 M HEPES, and 0.1% fatty-acid free BSA. Approximately 3000 glomeruli were plated per well in a 96-well white OPTI-plate (Perkin Elmer 6005290). The reaction was started by the addition of PMA to a final concentration of 16 μM in the absence or presence of increasing Cmpd 1. Luminol luminescence was read on an Envision plate reader in kinetic read mode.

[3] = biological target: PKC activity in glomerular lysates from ZSF1 obese rats; assay: Radioactive pan-PKC kinase assay with glomerular lysates; type: biochemical, rat; conditions: glomerular lysates from 20-week old ZSF1 obese rats, pan-PKC pseudo-substrate peptide
Description: Glomeruli were isolated using an established protocol of serially sieving minced kidney cortex tissue through mesh filters of decreasing pore size[69]. For radioactive pan-PKC assays, glomeruli were lysed in a buffer consisting of 50 mM Tris–HCl pH 8, 5 mM EDTA, 5 mM EGTA, protease and phosphatase inhibitor cocktails, 1% 2-mercaptoethanol, and 0.028% n-dodecyl-β-D-maltopyranoside (Anatrace D310) by sonication using two 10 s pulses with a probe sonicator. Supernatants were collected following centrifugation at 4 °C at 20,200 × g for 10 min. A 25 μL aliquot was used in a 50 μL ^32P-ATP pan-PKC radioactive kinase assay with the pan-PKC pseudo-substrate peptide RFARKGSLRQKNV. The reaction was incubated for 10 min at 37 °C prior to filter binding and scintillation counting. Data are reported as CPM incorporation per μg of total protein in the reaction, as determined using Pierce Coomassie Plus Protein Assay of the original lysate (Pierce 23236). Where indicated, the reaction was run in the presence of increasing amounts of Cmpd 1.

PKCδ = PKCδ (Homo sapiens, UniProt Q05655); assay: Z'-Lyte recombinant enzyme assay, PKCδ; type: biochemical
PKCδ, sequence (Q05655 whole entry): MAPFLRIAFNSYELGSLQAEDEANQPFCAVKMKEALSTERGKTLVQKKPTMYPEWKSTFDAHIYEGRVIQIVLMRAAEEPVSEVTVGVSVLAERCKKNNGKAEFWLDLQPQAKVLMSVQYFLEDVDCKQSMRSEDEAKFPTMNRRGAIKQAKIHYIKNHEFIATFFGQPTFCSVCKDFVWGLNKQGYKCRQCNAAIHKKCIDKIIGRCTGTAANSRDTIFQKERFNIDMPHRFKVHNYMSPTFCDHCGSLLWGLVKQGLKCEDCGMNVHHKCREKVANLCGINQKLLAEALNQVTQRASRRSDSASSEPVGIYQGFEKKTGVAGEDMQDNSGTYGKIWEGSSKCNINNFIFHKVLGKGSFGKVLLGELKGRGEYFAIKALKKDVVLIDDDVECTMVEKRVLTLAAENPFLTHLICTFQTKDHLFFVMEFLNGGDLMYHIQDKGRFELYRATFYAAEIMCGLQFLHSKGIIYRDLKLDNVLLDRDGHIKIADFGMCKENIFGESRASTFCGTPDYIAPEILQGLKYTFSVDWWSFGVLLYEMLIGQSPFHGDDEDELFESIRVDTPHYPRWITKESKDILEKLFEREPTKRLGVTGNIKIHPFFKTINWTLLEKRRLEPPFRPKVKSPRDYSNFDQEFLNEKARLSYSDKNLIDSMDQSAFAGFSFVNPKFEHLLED
Description: (§1) Half maximal inhibitory concentrations of Cmpd 1 were determined by Z’-Lyte biochemical assays (Life Technologies SelectScreen™ Kinase Profiling Services, Thermo Fisher Scientific). Kinome selectivity was determined at 1 μM Cmpd 1 concentration against a panel of 119 kinases. The original kinome tree in Fig. 1b was taken from Ref.[68].

PKCβ1 = PKCβ1 (Homo sapiens, UniProt P05771); assay: Z'-Lyte recombinant enzyme assay, PKCβ1; type: biochemical
PKCβ1, sequence (P05771 whole entry): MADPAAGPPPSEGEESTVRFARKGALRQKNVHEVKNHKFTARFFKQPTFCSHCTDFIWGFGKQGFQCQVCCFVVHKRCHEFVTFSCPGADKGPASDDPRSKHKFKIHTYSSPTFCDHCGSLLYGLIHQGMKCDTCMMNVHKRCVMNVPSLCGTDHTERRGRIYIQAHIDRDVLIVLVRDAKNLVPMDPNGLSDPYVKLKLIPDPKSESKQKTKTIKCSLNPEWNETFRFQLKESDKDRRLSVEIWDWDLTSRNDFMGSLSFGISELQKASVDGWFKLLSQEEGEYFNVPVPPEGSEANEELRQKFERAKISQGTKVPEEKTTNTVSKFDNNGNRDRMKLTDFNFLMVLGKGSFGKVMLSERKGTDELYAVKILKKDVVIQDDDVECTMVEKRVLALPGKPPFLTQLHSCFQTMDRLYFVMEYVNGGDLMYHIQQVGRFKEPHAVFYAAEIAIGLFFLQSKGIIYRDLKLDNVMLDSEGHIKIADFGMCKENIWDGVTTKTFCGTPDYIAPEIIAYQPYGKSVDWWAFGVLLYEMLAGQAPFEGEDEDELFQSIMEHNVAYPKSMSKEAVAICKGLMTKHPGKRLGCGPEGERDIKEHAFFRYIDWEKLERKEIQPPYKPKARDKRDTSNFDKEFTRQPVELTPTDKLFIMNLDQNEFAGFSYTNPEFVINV
Description: as §1

[4] = 4-day pharmacokinetic study with chow dosing; type: in vivo, rat; conditions: ZSF1 obese rats, chow dosing approx. 50 mpk/day, corrected for plasma protein binding
Description: Three male 12-week old ZSF1 obese rats were fed control or 0.744 g/kg Cmpd 1 chow for 4 days. Food consumption was estimated by measuring food provided versus food remaining in the hopper. Blood was collected through tail vein from each animal at 9 a.m. and 4 p.m. 2 days after chow dosing started, and at 9 a.m. four days after chow dosing started, for PK determination. Plasma protein binding of Cmpd 1 was measured by equilibrium dialysis of the in vitro fraction unbound of Cmpd 1 at a concentration of […] in plasma from pooled male and female CD-1 mice. Plasma was centrifuged and supernatant was analyzed by liquid chromatography–tandem mass spectrometry to detect Cmpd 1 (York Bioanalytical Solutions; York, UK).

PKCγ = PKCγ (Homo sapiens, UniProt P05129); assay: Z'-Lyte recombinant enzyme assay, PKCγ; type: biochemical
Description: as §1

PKCθ = PKCθ (Homo sapiens, UniProt Q04759); assay: Z'-Lyte recombinant enzyme assay, PKCθ; type: biochemical
PKCθ, sequence (Q04759 whole entry): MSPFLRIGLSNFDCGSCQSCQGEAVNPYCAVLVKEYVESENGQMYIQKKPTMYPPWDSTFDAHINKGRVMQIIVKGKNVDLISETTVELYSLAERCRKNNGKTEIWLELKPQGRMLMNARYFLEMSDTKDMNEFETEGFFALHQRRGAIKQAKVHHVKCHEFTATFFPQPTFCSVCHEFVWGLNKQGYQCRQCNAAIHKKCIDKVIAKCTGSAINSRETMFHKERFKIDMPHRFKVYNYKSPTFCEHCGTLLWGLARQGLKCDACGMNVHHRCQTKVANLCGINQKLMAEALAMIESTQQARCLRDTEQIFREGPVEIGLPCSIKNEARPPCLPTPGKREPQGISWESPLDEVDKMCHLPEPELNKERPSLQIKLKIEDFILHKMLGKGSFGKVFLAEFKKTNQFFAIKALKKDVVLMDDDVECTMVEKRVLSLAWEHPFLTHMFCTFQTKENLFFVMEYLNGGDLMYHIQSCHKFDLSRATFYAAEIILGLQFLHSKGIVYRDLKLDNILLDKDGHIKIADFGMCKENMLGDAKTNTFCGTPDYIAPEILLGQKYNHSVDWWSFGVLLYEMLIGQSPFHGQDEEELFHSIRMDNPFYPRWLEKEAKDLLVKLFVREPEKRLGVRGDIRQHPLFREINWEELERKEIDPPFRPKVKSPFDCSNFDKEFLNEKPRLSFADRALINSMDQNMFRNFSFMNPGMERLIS
Description: as §1

PKCα/β = assay: In vivo kinase occupancy profiling of spleens (probe-based chemoproteomics); set-up: species or system rat; conditions: Cmpd 1 chow-dosed ZSF1 obese rats; only PKCα/β from over 200 detectable kinases
Description: In vivo kinase profiling Spleens from 22–23 week old ZSF1 obese male rats provided no drug Chow or Cmpd 1 chow (n = 2 each) were snap frozen, pulverized, and approximately 100–150 mg of each sample were sent to ActiveX for analysis using a probe-based chemoproteomics platform to measure the fraction of kinase bound versus unbound by an ATP-competitive inhibitor. A kinase bound by an ATP-competitive inhibitor such as Cmpd 1 will be less accessible to a covalent ATP probe, and will consequently have a reduced peak in quantitative mass spectrometry of the tryptic fragment corresponding to its active site pulled down by the covalent biotinylated ATP probe. Lysates from n = 2 animals for each group were combined for the analysis.

PKCα = PKCα (Homo sapiens, UniProt P17252); assay: Z'-Lyte recombinant enzyme assay, PKCα; type: biochemical
Description: as §1

panel of 119 kinases = assay: Kinome selectivity profiling; type: biochemical; conditions: 1 μM Cmpd 1, panel of 119 kinases
Description: as §1

ZSF1 obese rats = assay: 7-day food consumption and body weight study, Cmpd 1 chow, ZSF1 obese rats; type: in vivo, rat; conditions: 7 days
Excerpt: To evaluate food consumption in different rat strains, cohorts of 10 male ZSF1 obese rats, 8 male ZSF1 lean littermate rats, and 10 age-matched male Sprague Dawley (SD) rats were divided into two groups and fed chow with or without 0.744 g/kg Cmpd 1 (Cmpd 1 chow) for 7 days.

Which IC50 [1] does the source give for `Cc1ncc(F)c(Nc2n[nH]c3c2CN(C(=O)N2C[C@@H](C)N(CC4CCOCC4)C[C@@H]2C)C3(C)C)n1` [Cmpd 1, 5-[(2S,5R)-2,5-dimethyl-4-(tetrahydro-2H-pyran-4-ylmethyl)piperazin-l-yl]carbonyl-N-(5-fluoro-2-methylpyrimidin-4-yl)-6,6-dimethyl-1,4,5,6-tetrahydropyrrolo[3,4-c]pyrazol-3-amine] here?
The IC50 was 0.026 µM.

What about the IC50 [2] of the same molecule?
The IC50 was 0.076 µM.

What about the IC50 [3] of the same molecule?
Its IC50 is 0.07 µM.

And the IC50 (PKCδ)?
Its IC50 is 1.55 µM.

What about the IC50 (PKCβ1) of the same molecule?
Its IC50 is 0.011 µM.

And the “Free drug concentration in serum, evening” value ([4]; 4 p.m.)?
The value was about 0.4 µM.

And the “Free drug concentration in serum, morning” value ([4]; 9 a.m.)?
The value was “roughly 700 nM”.

What about the IC50 (PKCγ) of the same molecule?
Its IC50 is 0.096 µM.

What about the IC50 (PKCθ) of the same molecule?
Its IC50 is 0.028 µM.

And the “Kinase occupancy in spleen” value (PKCα/β)?
Its value is over 90%.

And the IC50 (PKCα)?
The IC50 was 0.002 µM.

And the Kinome selectivity (panel of 119 kinases)?
The Kinome selectivity was “good selectivity”.

What about the Average food consumption (ZSF1 obese rats) of the same molecule?
The Average food consumption was 24 g/day.

And the Body weight change (ZSF1 obese rats)?
The Body weight change was “lost weight”.

And the “Reduction in food consumption versus no-drug chow” value (ZSF1 obese rats)?
Its value is 37%.
